Assays:
α-Syn oligomers = biological target: T1, α-Syn oligomers (Homo sapiens, UniProt P37840); assay: Binding affinity to α-Syn oligomers by curcumin analog fluorescence; conditions: for Kd: compound fluorescence, read-out: dissociation constant (Kd) for α-Syn oligomers; for affinity to oligomers compared to fibrils: comparison of Kd for fibrils and oligomers
T1 construct: made in house; host or cells: Escherichia coli BL21
Description: Immediately after incubation, fluorescence study was performed (for the excitation and emission ranges for each compounds, see Fig. S1). Experiments were performed using FluoroMax-4 spectrofluorometer (HORIBA JobinYvon) with excitation and emission slit widths of 5 nm.
The data were analyzed in Graphpad Prism software according to established method as used previously.

[1] = Stability of curcumin analogs by time-dependent intrinsic fluorescence; type: physicochemical; conditions: 20 mM MES buffer pH 6.0, 0.01% NaN3, 37 °C
Description: 1μl of this DMSO-stock solution was transferred to 2 ml microfuge tube and 1 ml of 20 mM MES buffer (pH 6.0, 0.01% NaN3) was added to it and mixed immediately by vortexing. These solutions were incubated at 37 °C and their respective fluorescence was taken at certain time intervals. The fluorescence was monitored by placing the 200 μl of the incubated solution in 0.1 cm path-length quartz cuvette (Hellma, Forest Hills, NY) and the spectra were acquired by using FluoroMax-4 spectrofluorometer (HORIBA JobinYvon) instrument with excitation and emission slit widths of 5 nm and 10 nm respectively. The fluorescence intensity maxima for each sample were plotted against time of incubation and fitted in exponential decay 1 in the Origin 8.0 software according to manufacture’s protocol (Fig. 2A).

preformed α-Syn fibrils [2] = biological target: T2, preformed α-Syn fibrils (Homo sapiens, UniProt P37840); assay: LDH cytotoxicity assay of preformed α-Syn fibrils incubated with curcumin analogs; type: cell-based; conditions: fibrils incubated with analog 48 h; SH-SY5Y cells
T2 construct: made in house; host or cells: Escherichia coli BL21
Description: The concentration of the fibrils was determined by subtraction of supernatant concentration from the original concentration of α-Syn kept for fibrillation.
The percent LDH release was plotted as difference in the absorbance value of 490 nm and 690 nm, considering 100% release for the TritonX-100 treated cells.

preformed α-Syn fibrils [3] = biological target: T2, preformed α-Syn fibrils; assay: Nile red binding assay on preformed α-Syn fibrils; type: biochemical; conditions: fibrils incubated with analog 48 h
Description: Stock solution of NR was prepared in DMSO (1 mM). […] Similar experimental protocol was used for NR binding to oligomers. FluoroMax-4 spectrofluorometer (HORIBA JobinYvon) was used with excitation and emission slit widths of 5 nm. The maximum NR fluorescence obtained at ~630 nm was used for plotting bar diagrams.

α-Syn [4] = biological target: T3, α-Syn (Homo sapiens, UniProt P37840); assay: α-Syn aggregation kinetics by compound fluorescence; type: biochemical; conditions: in presence of analog
T3 construct: made in house; host or cells: Escherichia coli BL21
Description: ThT fluorescence was used to monitor the aggregation kinetics of α-Syn only as a control.
(§1) Subsequently, we examined the effect of these analogs on α-Syn oligomerization by time dependent static light scattering experiment. […] After aggregation, TEM study was done to determine the effects of these analogs on the morphology of the resultant aggregates.
The α-Syn amyloid aggregation was started with LMW α-Syn of concentration ~300 μM in 1.5 ml microfuge tube in 20 mM MES buffer, pH 6.0, with 0.01% NaN3. […] The microfuge tubes with protein solutions were placed into Echo-Therm model RT11 vertical rotor (Torrey Pines Scientific, USA) with a speed of 50 rpm, at 37 °C inside an incubator.
The experiments were performed in FluoroMax-4 spectrofluorometer (HORIBA JobinYvon) with excitation and emission slit widths of 5 nm. Fluorescence was done in 20 mM MES buffer (pH 6.0, 0.01% NaN3).

α-Syn [5] = biological target: T3, α-Syn; assay: TEM of α-Syn aggregates formed in presence of analogs; type: biochemical
Description: as §1
(§2) The samples were then washed thrice with autoclaved MQ. The samples were then stained with 10 μl of uranyl formate 1% (w/v) and incubated in dark for 10 min. The EM image of each sample was acquired at 120 kV with magnifications in the range of 26,000X and 43,000X using a transmission electron microscope (TECNAI12 D312 FEI, Netherlands).

[6] = biological target: T4, preformed α-Syn amyloid fibrils (Homo sapiens, UniProt P37840); assay: TEM of preformed α-Syn fibrils with analogs; type: biochemical; conditions: after 48 h incubation with analog
T4 construct: made in house; host or cells: Escherichia coli BL21
Description: as §2

α-Syn fibrils = biological target: T5, α-Syn fibrils (Homo sapiens, UniProt P37840); assay: Binding affinity to α-Syn fibrils by curcumin analog fluorescence; conditions: for binding with preformed α-Syn fibrils: compound fluorescence
T5 construct: made in house; host or cells: Escherichia coli BL21
Description: To estimate the comparative binding affinity of curcumin analogs to the α-Syn fibrils and oligomers, curcumin fluorescence assay was performed for each analog. For binding study with fibrils, 10 μM of α-Syn fibrils were incubated in presence of varying concentration of curcumin and its analogs (0.25 μM to 30 μM) for 30 min at RT in dark and then fluorescence spectra were recorded. The normalized fluorescence intensity of different concentrations of curcumin/analogs at their corresponding λmax was plotted to obtain their respective saturation plots (Figs 6A and S7). From the saturation plot, dissociation constant (Kd) was calculated (see method section).
The binding of curcumin/analogs to α-Syn fibrils were determined based on change in fluorescence intensity. For this study, 10 μM α-Syn fibrils were incubated in presence and absence of varying concentration of curcumin/analogs (0.25 μM to 30 μM) for 30 min at RT in dark. Immediately after incubation, fluorescence study was performed (for the excitation and emission ranges for each compounds, see Fig. S1). Experiments were performed using FluoroMax-4 spectrofluorometer (HORIBA JobinYvon) with excitation and emission slit widths of 5 nm. The maximum fluorescence intensity for curcumin/analogs was normalized with respect to that of the lowest concentration of each analog. The normalized fluorescence intensity was plotted against increasing concentration of curcumin/analogs and the dissociation constant was determined using the equation
where, “ΔF” is the change in the fluorescence intensity of curcumin/analogs, “ΔFmax” is the change in the fluorescence intensity at saturation point and “L”is the concentration of curcumin/analogs. The data were analyzed in Graphpad Prism software according to established method as used previously. Similarly, the dissociation constant of curcumin and its analogs with preformed α-Syn oligomers and monomers (obtained from SEC) were also determined.

COc1ccc(/C=C/C(=O)CC(=O)/C=C/c2ccc(OC)cc2OC)c(OC)c1 [C4]
Kd (α-Syn oligomers): 16.5 ± 2.63 µM

COc1ccc(OC)c(/C=C/C(=O)CC(=O)/C=C/c2cc(OC)ccc2OC)c1 [C5]
relative stability compared with curcumin (slope of normalized fluorescence versus time) [1]: relatively more stable than curcumin
effect on cell death by preformed α-Syn fibrils, LDH (preformed α-Syn fibrils [2]): decrease in cell death
Nile red fluorescence of preformed α-Syn fibrils (exposed hydrophobic surface) (preformed α-Syn fibrils [3]): less NR fluorescence for fibrils as compared to curcumin
effect on rate/kinetics of α-Syn aggregation (α-Syn [4]): increases the rate of α-Syn aggregation
morphology of α-Syn aggregates formed in presence of analog (TEM) (α-Syn [5]): fibrils with shorter length

O=C(/C=C/c1ccccc1)CC(=O)/C=C/c1ccccc1 [C7]
relative stability compared with curcumin (slope of normalized fluorescence versus time) [1]: relatively more stable than curcumin
effect on cell death by preformed α-Syn fibrils, LDH (preformed α-Syn fibrils [2]): decrease in cell death
fibril morphology/thickness of preformed α-Syn fibrils (TEM, words) [6]: thinner fibrils
Kd (α-Syn fibrils; 10 μM fibrils, 0.25–30 μM analog, 30 min RT, read-out: dissociation constant (Kd) for α-Syn fibrils): 13.2 ± 2.29 µM
binding with preformed α-Syn fibrils (α-Syn fibrils): very weak binding
average fibril thickness of fibrils formed in presence of analog (α-Syn [5]): more in comparison to fibrils formed in presence of other analogs
morphology of α-Syn aggregates formed in presence of analog (TEM) (α-Syn [5]): fibrils with shorter length

O=C(/C=C/c1cccs1)CC(=O)/C=C/c1cccs1 [C8]
relative stability compared with curcumin (slope of normalized fluorescence versus time) [1]: relatively more stable than curcumin
effect on cell death by preformed α-Syn fibrils, LDH (preformed α-Syn fibrils [2]): decrease in cell death
fibril morphology/thickness of preformed α-Syn fibrils (TEM, words) [6]: thinner fibrils
affinity to oligomers compared to fibrils (α-Syn oligomers): higher binding affinity to oligomers as compared to fibrils
Kd (α-Syn oligomers): 1.46 ± 0.2 µM
effect on rate/kinetics of α-Syn aggregation (α-Syn [4]): less significant effect

O=C(/C=C/c1cccnc1)CC(=O)/C=C/c1cccnc1 [C9]
relative stability compared with curcumin (slope of normalized fluorescence versus time) [1]: relatively more stable than curcumin
fibril morphology/thickness of preformed α-Syn fibrils (TEM, words) [6]: thinner fibrils
binding with preformed α-Syn fibrils (α-Syn fibrils): did not show any significant binding
effect on rate/kinetics of α-Syn aggregation (α-Syn [4]): less significant effect
morphology of α-Syn aggregates formed in presence of analog (TEM) (α-Syn [5]): fibrils with shorter length

COc1ccc(/C=C/C(=O)CC(=O)/C=C/c2ccc(OC)cc2)cc1 [C10]
relative stability compared with curcumin (slope of normalized fluorescence versus time) [1]: relatively more stable than curcumin
effect on cell death by preformed α-Syn fibrils, LDH (preformed α-Syn fibrils [2]): decrease in cell death
affinity to oligomers compared to fibrils (α-Syn oligomers): higher binding affinity to oligomers as compared to fibrils
morphology of α-Syn aggregates formed in presence of analog (TEM) (α-Syn [5]): fibrils with shorter length
